Data published in the supplement of paper PMC9663587.

Tests used:
THZ531 = compound: CN(C)C/C=C/C(=O)Nc1ccc(C(=O)N2CCC[C@@H](Nc3ncc(Cl)c(-c4c[nH]c5ccccc45)n3)C2)cc1 [THZ531]; assay: GR value, 72 h; higher = faster growth (1 = untreated, <0 = killing);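 further: breast cancer and non-malignant breast epithelial lines, nine half-log doses, viable cells counted by Hoechst and LIVE/DEAD dye imaging versus time-zero plates and DMSO controls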
Neratinib/HKI272 = compound: CCOc1cc2ncc(C#N)c(Nc3ccc(OCc4ccccn4)c(Cl)c3)c2cc1NC(=O)/C=C/CN(C)C [Neratinib/HKI272]; assay: as above
Flavopiridol [1] = compound: T1, CN1CC[C@H](c2c(O)cc(O)c3c(=O)cc(-c4ccccc4Cl)oc23)[C@H](O)C1 [Flavopiridol]; assay: as above
THZ1 = compound: CN(C)C/C=C/C(=O)Nc1ccc(C(=O)Nc2cccc(Nc3ncc(Cl)c(-c4c[nH]c5ccccc45)n3)c2)cc1 [THZ1]; assay: as above
[2] = compound: CC(=O)c1c(C)c2cnc(Nc3ccc(N4CCNCC4)cn3)nc2n(C2CCCC2)c1=O; assay: as above
YKL-5-124 = compound: C=CC(=O)Nc1ccc(C(=O)Nc2[nH]nc3c2CN(C(=O)N[C@H](CN(C)C)c2ccccc2)C3(C)C)cc1 [YKL-5-124]; assay: as above
BSJ-03-123 = compound: CC(=O)c1c(C)c2cnc(Nc3ccc(N4CCN(CCOCCOCCOCCNC(=O)COc5cccc6c5C(=O)N(C5CCC(=O)NC5=O)C6=O)CC4)cn3)nc2n(C2CCCC2)c1=O [BSJ-03-123]; assay: as above
LEE011/Ribociclib = compound: CN(C)C(=O)c1cc2cnc(Nc3ccc(N4CCNCC4)cn3)nc2n1C1CCCC1 [LEE011/Ribociclib]; assay: as above
[3] = compound: CCN1CCN(Cc2ccc(Nc3ncc(F)c(-c4cc(F)c5nc(C)n(C(C)C)c5c4)n3)nc2)CC1; assay: as above
[4] = compound: CCc1cnn2c(NCc3ccc[n+]([O-])c3)cc(N3CCCC[C@H]3CCO)nc12; assay: as above
Flavopiridol [5] = compound: T1, Flavopiridol; assay: increase in dead-cell fraction, 72 h; higher = more death;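 further: breast cancer cell lines in 384-well plates, stained with Hoechst plus LIVE/DEAD far red dye and imaged, cells above an LDR intensity threshold counted dead, Hoechst-negative corpses included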
[6] = compound: CCN1CCN(Cc2ccc(Nc3ncc(F)c(-c4cc(F)c5nc(C)n(C(C)C)c5c4)n3)nc2)CC1; assay: as above

Cell Line MDAMB175VII has a GR value (THZ531; 0.0001 µM) of 0.885 GR, a GR value (THZ531; 0.0003162 µM) of 0.884 GR and a GR value (THZ531; 0.001 µM) of 0.841 GR. The GR value (THZ531; 0.003162 µM) was 0.919 GR, the GR value (THZ531; 0.01 µM) was 1 GR and the GR value (THZ531; 0.03162 µM) was 0.677 GR. For the same cell line, the GR value (THZ531; 0.1 µM) was -0.409 GR, the GR value (THZ531; 0.3162 µM) was -0.673 GR and the GR value (THZ531; 1 µM) was -0.403 GR. It also gave a GR value (Neratinib/HKI272; 0.0003162 µM) of 0.753 GR, a GR value (Neratinib/HKI272; 0.001 µM) of 0.53 GR and a GR value (Neratinib/HKI272; 0.003162 µM) of 0.138 GR. The GR value (Neratinib/HKI272; 0.01 µM) was -0.551 GR, the GR value (Neratinib/HKI272; 0.03162 µM) was -0.848 GR and the GR value (Neratinib/HKI272; 0.1 µM) was -0.905 GR. For the same cell line, the GR value (Neratinib/HKI272; 0.3162 µM) was -0.932 GR, the GR value (Neratinib/HKI272; 1 µM) was -0.949 GR and the GR value (Neratinib/HKI272; 3.162 µM) was -0.983 GR. It also gave a GR value (Flavopiridol [1]; 0.0001 µM) of 0.962 GR, a GR value (Flavopiridol [1]; 0.0003162 µM) of 1 GR and a GR value (Flavopiridol [1]; 0.001 µM) of 0.765 GR. It also gave a GR value (Flavopiridol [1]; 0.003162 µM) of 0.721 GR, a GR value (Flavopiridol [1]; 0.01 µM) of 0.675 GR and a GR value (Flavopiridol [1]; 0.03162 µM) of 0.748 GR. For the same cell line, the GR value (Flavopiridol [1]; 0.1 µM) was 0.442 GR, the GR value (Flavopiridol [1]; 0.3162 µM) was -0.175 GR and the GR value (Flavopiridol [1]; 1 µM) was -0.302 GR. It also gave a GR value (THZ1; 0.0001 µM) of 0.829 GR, a GR value (THZ1; 0.0003162 µM) of 1.05 GR and a GR value (THZ1; 0.001 µM) of 1.01 GR. The GR value (THZ1; 0.003162 µM) was 0.843 GR, the GR value (THZ1; 0.01 µM) was 0.736 GR and the GR value (THZ1; 0.03162 µM) was 0.515 GR. For the same cell line, the GR value (THZ1; 0.1 µM) was -0.0075 GR, the GR value (THZ1; 0.3162 µM) was -0.159 GR and the GR value (THZ1; 1 µM) was -0.44 GR. For the same cell line, the GR value ([2]; 0.0003162 µM) was 0.695 GR, the GR value ([2]; 0.001 µM) was 0.582 GR and the GR value ([2]; 0.003162 µM) was 0.689 GR. For the same cell line, the GR value ([2]; 0.01 µM) was 0.453 GR, the GR value ([2]; 0.03162 µM) was 0.156 GR and the GR value ([2]; 0.1 µM) was -0.0684 GR. For the same cell line, the GR value ([2]; 0.3162 µM) was -0.0381 GR, the GR value ([2]; 1 µM) was -0.0455 GR and the GR value ([2]; 3.162 µM) was -0.158 GR. For the same cell line, the GR value (YKL-5-124; 0.001 µM) was 0.0803 GR, the GR value (YKL-5-124; 0.003162 µM) was 0.0736 GR and the GR value (YKL-5-124; 0.01 µM) was 0.0488 GR. The GR value (YKL-5-124; 0.03162 µM) was 0.076 GR, the GR value (YKL-5-124; 0.1 µM) was 0.0075 GR and the GR value (YKL-5-124; 0.3162 µM) was 0.118 GR. For the same cell line, the GR value (YKL-5-124; 1 µM) was -0.0042 GR, the GR value (YKL-5-124; 3.162 µM) was 0.0879 GR and the GR value (YKL-5-124; 10 µM) was -0.754 GR. It also gave a GR value (BSJ-03-123; 0.001 µM) of 0.829 GR, a GR value (BSJ-03-123; 0.003162 µM) of 0.79 GR and a GR value (BSJ-03-123; 0.01 µM) of 0.713 GR. For the same cell line, the GR value (BSJ-03-123; 0.03162 µM) was 0.688 GR, the GR value (BSJ-03-123; 0.1 µM) was 0.734 GR and the GR value (BSJ-03-123; 0.3162 µM) was 0.573 GR. It also gave a GR value (BSJ-03-123; 1 µM) of 0.378 GR, a GR value (BSJ-03-123; 3.162 µM) of 0.262 GR and a GR value (BSJ-03-123; 10 µM) of 0.0206 GR. For the same cell line, the GR value (LEE011/Ribociclib; 0.001 µM) was 0.4 GR, the GR value (LEE011/Ribociclib; 0.003162 µM) was 0.267 GR and the GR value (LEE011/Ribociclib; 0.01 µM) was 0.288 GR. The GR value (LEE011/Ribociclib; 0.03162 µM) was 0.15 GR, the GR value (LEE011/Ribociclib; 0.1 µM) was 0.195 GR and the GR value (LEE011/Ribociclib; 0.3162 µM) was 0.0606 GR. It also gave a GR value (LEE011/Ribociclib; 1 µM) of 0.0351 GR, a GR value (LEE011/Ribociclib; 3.162 µM) of 0.19 GR and a GR value (LEE011/Ribociclib; 10 µM) of 0.192 GR. It also gave a GR value ([3]; 0.001 µM) of 0.725 GR, a GR value ([3]; 0.003162 µM) of 0.505 GR and a GR value ([3]; 0.01 µM) of 0.0712 GR. For the same cell line, the GR value ([3]; 0.03162 µM) was 0.105 GR, the GR value ([3]; 0.1 µM) was 0.0173 GR and the GR value ([3]; 0.3162 µM) was 0.0287 GR. The GR value ([3]; 1 µM) was -0.0111 GR, the GR value ([3]; 3.162 µM) was -0.0725 GR and the GR value ([3]; 10 µM) was -0.173 GR. The GR value ([4]; 0.0001 µM) was 1.09 GR, the GR value ([4]; 0.0003162 µM) was 1.07 GR and the GR value ([4]; 0.001 µM) was 1.14 GR. It also gave a GR value ([4]; 0.003162 µM) of 1.23 GR, a GR value ([4]; 0.01 µM) of 0.742 GR and a GR value ([4]; 0.03162 µM) of -0.651 GR. It also gave a GR value ([4]; 0.1 µM) of -0.516 GR, a GR value ([4]; 0.3162 µM) of -0.49 GR and a GR value ([4]; 1 µM) of -0.497 GR. For the same cell line, the “increase in dead-cell fraction” value (Flavopiridol [5]; 0.0001 µM) was -0.0018, the “increase in dead-cell fraction” value (Flavopiridol [5]; 0.0003162 µM) was -0.0019 and the “increase in dead-cell fraction” value (Flavopiridol [5]; 0.001 µM) was 0.0003. The “increase in dead-cell fraction” value (Flavopiridol [5]; 0.003162 µM) was 0.0018, the “increase in dead-cell fraction” value (Flavopiridol [5]; 0.01 µM) was 0.0067 and the “increase in dead-cell fraction” value (Flavopiridol [5]; 0.03162 µM) was -0.0026. The “increase in dead-cell fraction” value (Flavopiridol [5]; 0.1 µM) was 0.0081, the “increase in dead-cell fraction” value (Flavopiridol [5]; 0.3162 µM) was 0.0294 and the “increase in dead-cell fraction” value (Flavopiridol [5]; 1 µM) was 0.0685. For the same cell line, the “increase in dead-cell fraction” value ([6]; 0.001 µM) was -0.0013, the “increase in dead-cell fraction” value ([6]; 0.003162 µM) was -0.0015 and the “increase in dead-cell fraction” value ([6]; 0.01 µM) was 0.0094. The “increase in dead-cell fraction” value ([6]; 0.03162 µM) was 0.0188, the “increase in dead-cell fraction” value ([6]; 0.1 µM) was 0.0085 and the “increase in dead-cell fraction” value ([6]; 0.3162 µM) was 0.013. For the same cell line, the “increase in dead-cell fraction” value ([6]; 1 µM) was 0.0044, the “increase in dead-cell fraction” value ([6]; 3.162 µM) was 0.0131 and the “increase in dead-cell fraction” value ([6]; 10 µM) was 0.0317.
